Source: US9708314B2, “Heterocyclic amide compound” (NISSAN CHEMICAL INDUSTRIES, LTD., priority 2013, dated 2017)

How the values were obtained:
Format in all cases: in vivo
[1] = test system: transplanted Oryza sativa; experiment: Test Example 1: effect on crop, application before weed generation in submerged conditions; conditions: Application herbicide amount 320 g/ha; Seventeenth Table
Summary of the method: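 Alluvial soil in Wagner pots flooded to 4 cm water depth; weed seeds sown and 2.5 leaf stage rice seedlings transplanted. Emulsion diluted in water applied to water surface on sowing day at stated g/ha. Greenhouse 25° C. to 30° C.; effects scored 0–5 by herbicidal ratio after three weeks.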

[2] = test system: directly sowed Oryza sativa; experiment: Test Example 3: effect on crop by application to foliage (Wagner pot, water depth 0.1-0.5 cm); conditions: Nineteenth Table; application to foliage; application herbicide amount 320 g/ha
Summary of the method: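 Wagner pot foliar test: sow, grow 14 d (25–30 °C), spray diluted emulsion at set g/ha, score after 3 wk; 0 ≤5%, 5 ≥90% herbicidal ratio.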

Abutilon theophrasti = experiment: Test Example 4: herbicidal effect by application to foliage (diluvial soil, plastic box); conditions: foliage application, 320 g/ha
Summary of the method: (§1)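 Scores run from 0 (herbicidal ratio ≤5%) to 5 (≥90%, almost fully withered) and were assessed three weeks after foliar spraying. Seedlings had been raised for 14 days at 25-30° C in sterilized diluvial soil before treatment, with the emulsion diluted in water to the stated g/ha dose.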

Amaranthus retroflexus = experiment: as above; conditions: foliage application, 320 g/ha
Summary of the method: as §1

Apera spica-venti. = experiment: as above; conditions: foliage application, 320 g/ha
Summary of the method: as §1

Avena fatua = experiment: as above; conditions: foliage application, 320 g/ha
Summary of the method: as §1

Chenopodium album = experiment: as above; conditions: foliage application, 320 g/ha
Summary of the method: as §1

[3] = test system: Echinochloa crus-galli var. crus-galli; experiment: as above; conditions: foliage application, 320 g/ha
Summary of the method: as §1

Lolium multiflorum Lam. = experiment: as above; conditions: foliage application, 320 g/ha
Summary of the method: as §1

SMILES	a: transplanted Oryza sativa (effect on crop grade) [1]	b (effect on crop grade) [2]	M (Abutilon theophrasti) herbicidal effect grade (Abutilon theophrasti)	N (Amaranthus retroflexus) herbicidal effect grade (Amaranthus retroflexus)	L (Apera spica-venti.) herbicidal effect grade (Apera spica-venti.)	I (Avena fatua) herbicidal effect grade (Avena fatua)	O (Chenopodium album) herbicidal effect grade (Chenopodium album)	H (Echinochloa crus-galli var. crus-galli) herbicidal effect grade [3]	K (Lolium multiflorum Lam.) herbicidal effect grade (Lolium multiflorum Lam.)
CC(C)c1nnc2c(C(=S)Nc3nnnn3C)ccc(C(F)(F)F)n12 [2-039, 3-Isopropyl-N-(1-methyl-1H-tetrazol-5-yl)-5-(trifluoromethyl)-[1,2,4]triazolo[4,3-a]pyridine-8-carbothioamide]	4 (Herbicidal ratio of 70% or more and less than 90%)	4 (Herbicidal ratio of 70% or more and less than 90%)	5 (Herbicidal ratio of 90% or more (almost completely withered))	5 (Herbicidal ratio of 90% or more (almost completely withered))	4 (Herbicidal ratio of 70% or more and less than 90%)	4 (Herbicidal ratio of 70% or more and less than 90%)	5 (Herbicidal ratio of 90% or more (almost completely withered))	5 (Herbicidal ratio of 90% or more (almost completely withered))	3 (Herbicidal ratio of 40% or more and less than 70%)
CCOC(=O)Cc1nnc2c(C(=O)Nc3nnnn3C)ccc(C(F)(F)F)n12 [2-040]	4 (Herbicidal ratio of 70% or more and less than 90%)	4 (Herbicidal ratio of 70% or more and less than 90%)	5 (Herbicidal ratio of 90% or more (almost completely withered))	5 (Herbicidal ratio of 90% or more (almost completely withered))	3 (Herbicidal ratio of 40% or more and less than 70%)	3 (Herbicidal ratio of 40% or more and less than 70%)	5 (Herbicidal ratio of 90% or more (almost completely withered))	5 (Herbicidal ratio of 90% or more (almost completely withered))	1 (Herbicidal ratio of 5% or more and less than 20%)
COCCn1nnnc1NC(=O)c1ccc(C(F)(F)F)n2c(C(C)C)nnc12 [2-041]	0 (Herbicidal ratio of 5% or less (almost no effect))	3 (Herbicidal ratio of 40% or more and less than 70%)	5 (Herbicidal ratio of 90% or more (almost completely withered))	4 (Herbicidal ratio of 70% or more and less than 90%)	4 (Herbicidal ratio of 70% or more and less than 90%)	3 (Herbicidal ratio of 40% or more and less than 70%)	5 (Herbicidal ratio of 90% or more (almost completely withered))	5 (Herbicidal ratio of 90% or more (almost completely withered))	3 (Herbicidal ratio of 40% or more and less than 70%)
Cc1ccc(-c2nnc3c(C(=O)Nc4nnnn4C)ccc(C(F)(F)F)n23)cc1 [2-042]	5 (Herbicidal ratio of 90% or more (almost completely withered))	5 (Herbicidal ratio of 90% or more (almost completely withered))	5 (Herbicidal ratio of 90% or more (almost completely withered))	5 (Herbicidal ratio of 90% or more (almost completely withered))	0 (Herbicidal ratio of 5% or less (almost no effect))	2 (Herbicidal ratio of 20% or more and less than 40%)	5 (Herbicidal ratio of 90% or more (almost completely withered))	5 (Herbicidal ratio of 90% or more (almost completely withered))	1 (Herbicidal ratio of 5% or more and less than 20%)
Cn1nnnc1NC(=O)c1ccc(C(F)(F)F)n2c(-c3ccc(F)cc3)nnc12 [2-043]	4 (Herbicidal ratio of 70% or more and less than 90%)	5 (Herbicidal ratio of 90% or more (almost completely withered))	5 (Herbicidal ratio of 90% or more (almost completely withered))	5 (Herbicidal ratio of 90% or more (almost completely withered))	4 (Herbicidal ratio of 70% or more and less than 90%)	4 (Herbicidal ratio of 70% or more and less than 90%)	5 (Herbicidal ratio of 90% or more (almost completely withered))	5 (Herbicidal ratio of 90% or more (almost completely withered))	2 (Herbicidal ratio of 20% or more and less than 40%)
COc1cccc(-c2nnc3c(C(=O)Nc4nnnn4C)ccc(C(F)(F)F)n23)c1 [2-044]	4 (Herbicidal ratio of 70% or more and less than 90%)	5 (Herbicidal ratio of 90% or more (almost completely withered))	5 (Herbicidal ratio of 90% or more (almost completely withered))	5 (Herbicidal ratio of 90% or more (almost completely withered))	3 (Herbicidal ratio of 40% or more and less than 70%)	2 (Herbicidal ratio of 20% or more and less than 40%)	5 (Herbicidal ratio of 90% or more (almost completely withered))	5 (Herbicidal ratio of 90% or more (almost completely withered))	2 (Herbicidal ratio of 20% or more and less than 40%)
COc1ccccc1-c1nnc2c(C(=O)Nc3nnnn3C)ccc(C(F)(F)F)n12 [2-045]	5 (Herbicidal ratio of 90% or more (almost completely withered))	5 (Herbicidal ratio of 90% or more (almost completely withered))	5 (Herbicidal ratio of 90% or more (almost completely withered))	5 (Herbicidal ratio of 90% or more (almost completely withered))	3 (Herbicidal ratio of 40% or more and less than 70%)	2 (Herbicidal ratio of 20% or more and less than 40%)	5 (Herbicidal ratio of 90% or more (almost completely withered))	5 (Herbicidal ratio of 90% or more (almost completely withered))	1 (Herbicidal ratio of 5% or more and less than 20%)
COC(=O)Cn1nnnc1NC(=O)c1ccc(C(F)(F)F)n2c(C(C)C)nnc12 [2-046]	0 (Herbicidal ratio of 5% or less (almost no effect))	0 (Herbicidal ratio of 5% or less (almost no effect))	4 (Herbicidal ratio of 70% or more and less than 90%)	4 (Herbicidal ratio of 70% or more and less than 90%)	0 (Herbicidal ratio of 5% or less (almost no effect))	0 (Herbicidal ratio of 5% or less (almost no effect))	4 (Herbicidal ratio of 70% or more and less than 90%)	3 (Herbicidal ratio of 40% or more and less than 70%)	0 (Herbicidal ratio of 5% or less (almost no effect))
CC(C)c1nnc2c(C(=O)Nc3nnnn3C)ccc(C(F)F)n12 [2-047]	4 (Herbicidal ratio of 70% or more and less than 90%)	3 (Herbicidal ratio of 40% or more and less than 70%)	5 (Herbicidal ratio of 90% or more (almost completely withered))	5 (Herbicidal ratio of 90% or more (almost completely withered))	3 (Herbicidal ratio of 40% or more and less than 70%)	3 (Herbicidal ratio of 40% or more and less than 70%)	5 (Herbicidal ratio of 90% or more (almost completely withered))	5 (Herbicidal ratio of 90% or more (almost completely withered))	1 (Herbicidal ratio of 5% or more and less than 20%)
CSCCn1nnnc1NC(=O)c1ccc(C(F)(F)F)n2c(C(C)C)nnc12 [2-048]	4 (Herbicidal ratio of 70% or more and less than 90%)	3 (Herbicidal ratio of 40% or more and less than 70%)	5 (Herbicidal ratio of 90% or more (almost completely withered))	5 (Herbicidal ratio of 90% or more (almost completely withered))	4 (Herbicidal ratio of 70% or more and less than 90%)	4 (Herbicidal ratio of 70% or more and less than 90%)	5 (Herbicidal ratio of 90% or more (almost completely withered))	5 (Herbicidal ratio of 90% or more (almost completely withered))	4 (Herbicidal ratio of 70% or more and less than 90%)
